Experimental data published in publication PMC3371641 (SAR and QSAR in Environmental Research, 2011).

Each compound was assayed against T1, cytochrome P450 enzyme 1A2 (CYP1A2) (Homo sapiens, UniProt P05177) (assay: enzyme inhibition assay, method reported earlier). Settings: not given.
T1 sequence (P05177 2-516): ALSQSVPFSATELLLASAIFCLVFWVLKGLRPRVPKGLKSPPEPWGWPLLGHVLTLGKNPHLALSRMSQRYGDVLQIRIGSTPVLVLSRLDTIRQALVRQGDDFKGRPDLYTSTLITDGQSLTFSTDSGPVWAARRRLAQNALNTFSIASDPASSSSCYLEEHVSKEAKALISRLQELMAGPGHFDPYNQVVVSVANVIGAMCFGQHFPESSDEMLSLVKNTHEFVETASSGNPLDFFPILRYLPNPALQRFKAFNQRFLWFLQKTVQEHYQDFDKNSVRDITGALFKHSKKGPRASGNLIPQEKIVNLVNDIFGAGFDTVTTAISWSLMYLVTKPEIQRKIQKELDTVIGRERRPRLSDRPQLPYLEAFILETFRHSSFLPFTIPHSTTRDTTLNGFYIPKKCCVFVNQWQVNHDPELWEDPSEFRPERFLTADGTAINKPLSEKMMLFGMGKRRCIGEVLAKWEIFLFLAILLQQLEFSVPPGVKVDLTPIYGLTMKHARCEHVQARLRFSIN
Type: biochemical
`CCC#Cc1ccc2ccc3cccc4ccc1c2c34` [1EEP, 1-butynylpyrene] showed an IC50 of 430 nM.
For `CC#Cc1ccc2c(ccc3ccccc32)c1` [2MEPHEN, 2-(1-propynyl)phenanthrene], the IC50 was 600 nM.
For `C#CCOc1ccc(-c2ccccc2)cc1` [4BIPHPE, 4-biphenylpropargyl ether], the IC50 was 1550 nM.
With `C#CCOc1ccc2c(C)cc(=O)oc2c1` [4M7CPE, 4-methyl-7-coumarinpropargyl ether] the IC50 was 2010 nM.
`C#CCOc1ccc2c(C(F)(F)F)cc(=O)oc2c1` [4TFM7CPE, 4-(trifluoromethyl)-7-coumarinpropargyl ether] gave an IC50 of 700 nM.
With `C#CCOc1ccc(-c2cc(=O)c3ccccc3o2)cc1` [4′FPE, 4′-flavonepropargyl ether] the IC50 was 1270 nM.
For `C#CCOc1ccc(-c2cc(=O)c3ccc4ccccc4c3o2)cc1` [4′αNFPE, α-naphthoflavone-4′-propargyl ether], the IC50 was 260 nM.
In the case of `C#CCOc1cccc2oc(-c3ccccc3)cc(=O)c12` [5FPE, 5-flavonepropargyl ether], the IC50 is reported as 380 nM.
`C#CCOc1ccc2oc(-c3ccccc3)cc(=O)c2c1` [6FPE, 6-flavonepropargyl ether] was tested, and the IC50 was 940 nM.
`C#CCOc1ccc2c(c1)OC(c1ccccc1)CC2=O` (stereo not drawn) [7FLAVANONEPE, 7FlavanonePE] was tested, and the IC50 was 970 nM.
`C#CCOc1ccc2c(=O)cc(-c3ccccc3)oc2c1` [7FPE, 7-flavonepropargyl ether] gave an IC50 of 390 nM.

Same assay, conditions: read-out: EI
In the case of `C#CCOCc1ccc(-c2ccccc2)cc1` [4BIPHMPE, 4-biphenyl methyl propargyl ether], the IC50 is reported as 1840 nM.
